The assay relates to P388 leukemia ip, CD2F1 mice, survival T/C. Briefly: NCI In Vivo Anticancer Drug Screen. Data for tumor model P388 Leukemia (intraperitoneal) in CD2F1 (CDF1) mice. The following applies: endpoint: median survival time, higher = longer survival. The procedure, abridged:
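Mice carrying the transplanted tumor received test compound or vehicle. Survival was recorded in each group, and the value is the treated-group measurement divided by that of the vehicle-treated control group.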

[1] abbreviates: dose: 50.0 mg/kg/injection, schedule: Q01DX005 (ip), vehicle: saline with Tween-80.
[2] abbreviates: dose: 100.0 mg/kg/injection, schedule: Q01DX005 (ip), vehicle: saline with Tween-80.
[3] abbreviates: dose: 200.0 mg/kg/injection, schedule: Q01DX005 (ip), vehicle: saline with Tween-80.
[4] abbreviates: dose: 60.0 mg/kg/injection, schedule: Q01DX005 (ip), vehicle: saline with Tween-80.
[5] abbreviates: dose: 120.0 mg/kg/injection, schedule: Q01DX005 (ip), vehicle: saline with Tween-80.
[6] abbreviates: dose: 240.0 mg/kg/injection, schedule: Q01DX005 (ip), vehicle: saline with Tween-80.
[7] abbreviates: dose: 50.0 mg/kg/injection, schedule: Q01DX009 (ip), vehicle: saline.
The mark [8] stands for this setting: dose: 100.0 mg/kg/injection, schedule: Q01DX009 (ip), vehicle: saline with Tween-80.

Values joined by “and” are separate entries in the source; they are usually repeats but may differ in a detail not shown here. Identical values can stand only once. Inconclusive results and toxic doses are left out.

Take `C=C1C(=O)OC2C1C(OC(=O)/C(C)=C/C)CC1(C)OC1C1OC1C1(CO1)C2O` (stereo unspecified): the T/C (dose: 5.0 mg/kg/injection, schedule: Q01DX005 (ip), vehicle: Klucel (hydroxypropylcellulose) (HPC)) is 106 % of control; the T/C (dose: 10.0 mg/kg/injection, schedule: Q01DX005 (ip), vehicle: Klucel (hydroxypropylcellulose) (HPC)) is 97 % of control; the T/C (dose: 20.0 mg/kg/injection, schedule: Q01DX005 (ip), vehicle: Klucel (hydroxypropylcellulose) (HPC)) was 95 % of control; the T/C (dose: 40.0 mg/kg/injection, schedule: Q01DX005 (ip), vehicle: Klucel (hydroxypropylcellulose) (HPC)) was 104 % of control; the T/C (dose: 80.0 mg/kg/injection, schedule: Q01DX005 (ip), vehicle: Klucel (hydroxypropylcellulose) (HPC)) was 116 % of control.

In the case of `CC1(C)OC2OCCC(N=[N+]=[N-])C2O1` (stereo unspecified), the T/C by setting is: under setting [1], 96 % of control; under setting [2], 96 % of control; under setting [3], 94 % of control.

As for `CCCn1c(Cl)c(C=O)c2ccccc21`, the T/C is 104 % of control (dose: 100.0 mg/kg/injection, schedule: Q01DX001 (ip), vehicle: Klucel (hydroxypropylcellulose) (HPC)); 98 % of control (dose: 200.0 mg/kg/injection, schedule: Q01DX001 (ip), vehicle: Klucel (hydroxypropylcellulose) (HPC)); 97 % of control (dose: 400.0 mg/kg/injection, schedule: Q01DX001 (ip), vehicle: Klucel (hydroxypropylcellulose) (HPC)).

In the case of `CS1(C)=NC(=O)c2cc([N+](=O)[O-])ccc2N=1`, the T/C is 94 % of control under setting [4], 94 % of control under setting [5] and 92 % of control under setting [6].

On to `Cn1cnc2cc(N3CCCCC3)c([N+](=O)[O-])cc2c1=O`, for which the T/C was 101 % of control (dose: 50.0 mg/kg/injection, schedule: Q01DX009 (ip), vehicle: Klucel (hydroxypropylcellulose) (HPC)); 107 % of control (dose: 100.0 mg/kg/injection, schedule: Q01DX009 (ip), vehicle: Klucel (hydroxypropylcellulose) (HPC)); 99 % of control (dose: 200.0 mg/kg/injection, schedule: Q01DX009 (ip), vehicle: Klucel (hydroxypropylcellulose) (HPC)).

With `[Br][Rh][Br].[NH-]c1nc2ccc(Br)cc2s1.[NH-]c1nc2ccc(Br)cc2s1.[NH-]c1nc2ccc(Br)cc2s1.[NH-]c1nc2ccc(Br)cc2s1`, the T/C runs as follows: under setting [7], 100 % of control; (dose: 100.0 mg/kg/injection, schedule: Q01DX009 (ip), vehicle: saline) 98 % of control; (dose: 200.0 mg/kg/injection, schedule: Q01DX009 (ip), vehicle: saline) 100 % of control.

As to `CCOC(=O)CNC(C)c1ccc(F)cc1` (stereo unspecified), the T/C runs as follows: (dose: 50.0 mg/kg/injection, schedule: Q01DX005 (ip), vehicle: saline) 100 % of control; (dose: 100.0 mg/kg/injection, schedule: Q01DX005 (ip), vehicle: saline) 105 % of control; (dose: 200.0 mg/kg/injection, schedule: Q01DX005 (ip), vehicle: saline) 103 % of control.

On to `O=C(O)c1ccccc1C(=O)c1ccc(CBr)cc1`, for which the T/C is 109 % of control (dose: 1.56 mg/kg/injection, schedule: Q01DX009 (ip), vehicle: saline with Tween-80); 109 % of control (dose: 3.13 mg/kg/injection, schedule: Q01DX009 (ip), vehicle: saline with Tween-80); 109 % of control and 113 % of control (dose: 6.25 mg/kg/injection, schedule: Q01DX009 (ip), vehicle: saline with Tween-80); 91 % of control (dose: 6.25 mg/kg/injection, schedule: Q04DX003 (ip), vehicle: saline with Tween-80); 95 % of control (dose: 12.5 mg/kg/injection, schedule: Q04DX003 (ip), vehicle: saline with Tween-80); 108 % of control (dose: 25.0 mg/kg/injection, schedule: Q04DX003 (ip), vehicle: saline with Tween-80).

Regarding `Nc1ccc(Cl)cc1C(=O)c1ccccc1Cl`, the T/C was 96 % of control under setting [4], 96 % of control under setting [5] and 90 % of control under setting [6].

Regarding `O=C1N[C@@H]2C(=C[C@H](O)[C@@H](O)[C@H]2O)c2cc3c(c(O)c21)OCO3`, the T/C is 110 % of control (dose: 0.62 mg/kg/injection, schedule: Q01DX009 (ip), vehicle: saline with Tween-80); 100 % of control (dose: 5.0 mg/kg/injection, schedule: Q01DX009 (ip), vehicle: saline with Tween-80); 87 % of control (dose: 10.0 mg/kg/injection, schedule: Q01DX009 (ip), vehicle: saline with Tween-80).

`CC1(C)N=C(N)N=C(N)N1c1ccc(OCCNS(=O)(=O)c2cccc(S(=O)(=O)F)c2)c(Cl)c1`: the T/C by setting is: (dose: 12.5 mg/kg/injection, schedule: Q01DX009 (ip), vehicle: saline) 152 % of control; (dose: 25.0 mg/kg/injection, schedule: Q01DX009 (ip), vehicle: saline) 157 % of control; under setting [7], 168 % of control; under setting [8], 154 % of control.

On to `O=P(O)(O)O`, for which the T/C (dose: 60.0 mg/kg/injection, schedule: Q01DX005 (ip), vehicle: saline) is 97 % of control; the T/C (dose: 120.0 mg/kg/injection, schedule: Q01DX005 (ip), vehicle: saline) was 97 % of control; the T/C (dose: 240.0 mg/kg/injection, schedule: Q01DX005 (ip), vehicle: saline) is 90 % of control.

For `CC(C)=CCC/C(C)=C\CCl`, the T/C is, setting by setting: (dose: 25.0 mg/kg/injection, schedule: Q01DX009 (ip), vehicle: saline with Tween-80) 107 % of control; (dose: 50.0 mg/kg/injection, schedule: Q01DX009 (ip), vehicle: saline with Tween-80) 98 % of control; under setting [8], 87 % of control; (dose: 200.0 mg/kg/injection, schedule: Q01DX009 (ip), vehicle: saline with Tween-80) 90 % of control.

As to `O=C1CCCc2c1cc(C1CCCC1)c1ccccc21`, the T/C is, setting by setting: (dose: 60.0 mg/kg/injection, schedule: Q01DX005 (ip), vehicle: Klucel (hydroxypropylcellulose) (HPC)) 104 % of control; (dose: 120.0 mg/kg/injection, schedule: Q01DX005 (ip), vehicle: Klucel (hydroxypropylcellulose) (HPC)) 94 % of control; (dose: 240.0 mg/kg/injection, schedule: Q01DX005 (ip), vehicle: Klucel (hydroxypropylcellulose) (HPC)) 101 % of control.

Turning to `CN(C)[C@@H]1C(=O)C(C(N)=O)=C(O)[C@@]2(O)C(=O)C3=C(O)c4c(O)cccc4C[C@H]3C[C@@H]12`, the T/C reads like this: (dose: 7.5 mg/kg/injection, schedule: Q01DX010 (ip), vehicle: saline) 115 % of control; (dose: 15.0 mg/kg/injection, schedule: Q01DX010 (ip), vehicle: saline) 120 % of control.

On to `CC(C)OC1CC(C)(O)Cc2cc3c(c(O)c21)C(=O)c1c(O)cc2c(c1C3=O)OC1OC2(C)C(O)C(N(C)C)C1O` (stereo unspecified), for which the T/C reads like this: (dose: 2.0 mg/kg/injection, schedule: Q01DX009 (ip), vehicle: other) 101 % of control; (dose: 4.0 mg/kg/injection, schedule: Q01DX009 (ip), vehicle: other) 120 % of control; (dose: 8.0 mg/kg/injection, schedule: Q01DX009 (ip), vehicle: other) 106 % of control; (dose: 16.0 mg/kg/injection, schedule: Q01DX009 (ip), vehicle: other) 87 % of control.

In the case of `NC(CSSCC(NC(=O)c1ccccc1)C(=O)O)C(=O)O` (stereo unspecified), the T/C is 103 % of control and 99 % of control (dose: 50.0 mg/kg/injection, schedule: Q01DX005 (ip), vehicle: Klucel (hydroxypropylcellulose) (HPC)); 106 % of control and 96 % of control (dose: 100.0 mg/kg/injection, schedule: Q01DX005 (ip), vehicle: Klucel (hydroxypropylcellulose) (HPC)); 100 % of control and 101 % of control and 111 % of control (dose: 200.0 mg/kg/injection, schedule: Q01DX005 (ip), vehicle: Klucel (hydroxypropylcellulose) (HPC)).

For the molecule `CC1C(O)C(C)C(c2ccccc2)N(C)C1c1ccccc1` (stereo unspecified), the T/C is 100 % of control under setting [1], 106 % of control under setting [2] and 106 % of control under setting [3].

In the case of `CSCCn1ccnc1[N+](=O)[O-]`, the T/C runs as follows: (dose: 12.5 mg/kg/injection, schedule: Q01DX009 (ip), vehicle: distilled water + Tween-80) 100 % of control; (dose: 25.0 mg/kg/injection, schedule: Q01DX009 (ip), vehicle: distilled water + Tween-80) 96 % of control; (dose: 50.0 mg/kg/injection, schedule: Q01DX009 (ip), vehicle: distilled water + Tween-80) 100 % of control; (dose: 100.0 mg/kg/injection, schedule: Q01DX009 (ip), vehicle: distilled water + Tween-80) 101 % of control; (dose: 200.0 mg/kg/injection, schedule: Q01DX009 (ip), vehicle: distilled water + Tween-80) 108 % of control.

The values above are taken from PubChem BioAssay AID330 (DTP/NCI, 2004).
